The text below walks through data of ChEMBL document CHEMBL3045344, “Synthesis of d-amino acid peptides and their effect on beta-amyloid aggregation and toxicity in transgenic Caenorhabditis elegans” (Med Chem Res, 2013).

Molecules are shown by their SMILES. Active and inactive are the calls of the source. The rule behind the calls is not given here. Square brackets hold non-standard residues; d marks the D form. Peptide text beside a SMILES is read from it.

For test [1], the target named is Amyloid-beta precursor protein (Homo sapiens) (UniProt P05067). The test can be described thus: Binding affinity to amyloid beta (1-42) (unknown origin) assessed as increase in hydrophobic site exposure at Abeta42/compound molar ratio of 1:1 after 3 days by ANS fluorescence analysis.
The test system of test [2] is Caenorhabditis elegans. The test can be described thus: Increase in survival of transgenic Caenorhabditis elegans CL2006 expressing human amyloid beta42 at 123 ug/ml. The format is functional, organism-based.
The target of test [3] is Amyloid-beta precursor protein (Homo sapiens) (UniProt P05067). Put plainly: Inhibition of amyloid beta (1-42) (unknown origin) fibril formation at Abeta42/compound molar ratio of 1:1 after 3 days by thioflavin T fluorescence method.
Test [4] shares this target. Put plainly: Induction of amyloid beta (1-42) (unknown origin) aggregation at Abeta42/compound molar ratio of 1:5 after 3 days by turbidity based assay.
The target is the same in test [5]. Put plainly: Stabilization of random coil conformation of amyloid beta (1-42) (unknown origin) after 3 days by CD spectroscopy.
Test [6] shares this target. The test can be described thus: Inhibition of amyloid beta (1-42) (unknown origin) fibril formation at Abeta42/compound molar ratio of 1:5 after 3 days by thioflavin T fluorescence method.
Test [7] shares this target. The test can be described thus: Induction of amyloid beta (1-42) (unknown origin) oligomer formation after 48 hr by silver staining.
The target is the same in test [8]. The test can be described thus: Induction of amyloid beta (1-42) (unknown origin) aggregation at Abeta42/compound molar ratio of 1:1 after 3 days by turbidity based assay.
For test [9] the target is unchanged. Put plainly: Binding affinity to amyloid beta (1-42) (unknown origin) assessed as increase in hydrophobic site exposure at Abeta42/compound molar ratio of 1:5 after 3 days by ANS fluorescence analysis.
The target is the same in test [10]. The test can be described thus: Inhibition of amyloid beta (1-42) (unknown origin) assembly assessed as decrease in fibril formation after 3 days by ThT stain based fluorescence microscopy.
The test system of test [11] is Caenorhabditis elegans. The test can be described thus: Increase in survival of transgenic Caenorhabditis elegans CL2006 expressing human amyloid beta42 at 124 ug/ml. Format: functional, organism-based.
The target of test [12] is Amyloid-beta precursor protein (Homo sapiens) (UniProt P05067). The test can be described thus: Inhibition of amyloid beta (1-42) (unknown origin) oligomer formation after 48 hr by silver staining.
Test [13] shares this target. Put plainly: Inhibition of amyloid beta (1-42) (unknown origin) aggregation at Abeta42/compound molar ratio of 1:1 after 3 days by turbidity based assay.
Test [14] has the same target. The test can be described thus: Induction of amyloid beta (1-42) (unknown origin) assembly assessed as mixed fibril and spherical aggregate formation after 3 days by ThT stain based fluorescence microscopy.
Test [15] shares this target. Put plainly: Inhibition of amyloid beta (1-42) (unknown origin) aggregation at Abeta42/compound molar ratio of 1:5 after 3 days by turbidity based assay.

Amyloid-beta precursor protein (Homo sapiens), sequence (P05067 whole entry): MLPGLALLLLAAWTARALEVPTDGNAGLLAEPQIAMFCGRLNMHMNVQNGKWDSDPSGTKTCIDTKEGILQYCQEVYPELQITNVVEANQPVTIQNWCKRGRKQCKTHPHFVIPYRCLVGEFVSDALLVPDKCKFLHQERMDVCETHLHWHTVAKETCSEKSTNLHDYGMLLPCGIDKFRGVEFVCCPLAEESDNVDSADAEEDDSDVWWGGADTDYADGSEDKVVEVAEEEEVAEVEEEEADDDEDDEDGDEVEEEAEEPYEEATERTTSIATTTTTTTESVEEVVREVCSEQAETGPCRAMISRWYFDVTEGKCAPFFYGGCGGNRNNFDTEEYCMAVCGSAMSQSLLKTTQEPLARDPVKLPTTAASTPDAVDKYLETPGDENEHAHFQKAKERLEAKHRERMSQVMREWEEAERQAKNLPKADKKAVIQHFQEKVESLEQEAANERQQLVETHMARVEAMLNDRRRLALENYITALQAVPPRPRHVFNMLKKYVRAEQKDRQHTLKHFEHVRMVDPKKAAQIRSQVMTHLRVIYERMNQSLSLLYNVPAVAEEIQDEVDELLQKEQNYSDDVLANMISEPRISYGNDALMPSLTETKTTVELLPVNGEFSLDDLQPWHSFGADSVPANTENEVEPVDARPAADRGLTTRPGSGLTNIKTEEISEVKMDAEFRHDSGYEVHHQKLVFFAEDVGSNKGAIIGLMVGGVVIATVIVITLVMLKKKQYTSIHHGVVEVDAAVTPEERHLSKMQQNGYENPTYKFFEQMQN

Regarding `CC(C)C[C@@H](NC(=O)[C@@H](CCCCN)NC(=O)[C@H](N)CCCCN)C(=O)N[C@@H](C(=O)N[C@H](Cc1ccccc1)C(=O)N[C@H](Cc1ccccc1)C(=O)N[C@H](C)C(=O)N[C@H](CCCNC(=N)N)C(=O)N[C@H](CCCNC(=N)N)C(=O)N[C@H](CCCNC(=N)N)C(=O)N[C@H](CCCNC(=N)N)C(=O)N[C@H](C)C(=O)O)C(C)C`, the outcome in test [1], in [4], in [5], in test [7], in test [8] and in test [9] was Active. In the test on Caenorhabditis elegans [2], the result was inactive. For the same compound, the inhibition entry in test [3], in test [6] and in test [10] was “Active” each time.

Regarding `CC(C)C[C@@H](NC(=O)[C@@H](CCCCN)NC(=O)[C@H](N)CCCCN)C(=O)N[C@@H](C(=O)N[C@H](Cc1ccccc1)C(=O)N[C@H](Cc1ccccc1)C(=O)N[C@H](C)C(=O)O)C(C)C` (H-[dK][dK][dL][dV][dF][dF][dA]-OH), the result (in test [1]; in [4]; in test [5]; in [8]; with Caenorhabditis elegans [11]; in test [9]) was Active. In addition, the inhibition result in [3], in test [6], in test [12] and in test [10] was “Active” throughout.

Turning to `CC(C)C[C@@H](NC(=O)[C@@H](CCCCN)NC(=O)CNC(=O)[C@H]1CCCN1)C(=O)N[C@@H](C(=O)N[C@H](Cc1ccc(O)cc1)C(=O)N[C@H](C)C(=O)O)C(C)C`, the result (in test [1]; in test [5]; with Caenorhabditis elegans [11]; in [14]; in [9]) was Active. For the same compound, the inhibition entry in test [3] and in test [6] was “inactive” each time. Besides, the inhibition result in [13], in [12] and in [15] was “Active” each time.
